Results as given in patent US10125100B2, “Kinase inhibitors” (Respivert Limited, priority 2014, dated 2018).
In brackets after ≈: the same amount, converted by molar mass. Counter-ions that a name gives are not always drawn.

Assays:
[1] = test system: Jurkat cells; experiment: (r) Cell cytotoxicity assay; assay type: cell-based, human; conditions: 24 hours
How it was run: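 Viability read by flow cytometry as the fraction of propidium iodide-negative cells (7.5 μg/mL PI, 15 min), relative to 1.0% DMSO control. Beforehand, 1×10^5 Jurkat cells in RPMI/10% FBS were treated 24 h at 37° C., 5% CO2 with test compound at final 20, 5 or 1 μg/mL.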

[2] = Solubility in fasted-state simulated colonic fluid (FaSSCoF); assay type: physicochemical; conditions: for pH 6.5 FaSSCoF Solubility, Run 2 / pH 6.5 FaSSCoF Solubility, Run 1: 24 h; for solubility thermodynamic at 24 h: 25 °C, pH 6.5, fassgf or other biorelevant, thermodynamic from solid
Method: The solubilities of compounds of the invention in FaSSCoF at pH 6.5 are determined using a modification of a previously-reported procedure (Vertzoni, M., et al. Pharm. Res. 2010, 27, 2187-2196). In place of the bile salt extract employed in the original procedure (which extract is no longer available), the modified procedure uses a mixture of sodium taurochlorate (0.15 g), glycocholic acid (0.15 g), ursodeoxycholic acid (0.05 g), cholic acid (0.05 g), and glycodeoxycholic acid (0.05 g). These five bile acids are ground together with a mortar and pestle to produce a fine white powder that is incorporated into the FaSSCoF, as outlined below.
Tris(hydroxymethyl)aminomethane (Tris; 0.275 g) and maleic acid (0.44 g) are dissolved in water (35 mL) to give a solution whose pH is adjusted to 6.5 by treatment with 0.5M NaOH (ca. 12 mL). The solution is then made up to 50 mL with water. A portion of this Tris/maleate buffer solution (ca. 25 mL) is added to a 0.5 L round-bottomed flask, before being treated with 0.00565 g of the bile acid mixture described above. Solutions of phosphatidylcholine (0.0111 g) in DCM (0.15 mL) and palmitic acid (0.0013 g) in DCM (0.15 mL) are added, then the organic solvent is evaporated off under reduced pressure at 40° C. until a clear solution, with no perceptible DCM odour, is achieved. The volume of the evaporated solution is adjusted to 50 mL by addition of the remainder of Tris/maleate buffer, then BSA (0.115 g) is added, before being dissolved by gentle agitation.
Test compounds are suspended in the pH 6.5 FaSSCoF medium to give a maximum final concentration of 2-10 mg/mL. The suspensions are equilibrated at 25° C. for 24 h, before being filtered through a glass fibre C filter. The filtrates are then diluted as appropriate for injection and quantification by HPLC with reference to a standard. Different volumes of the standard, diluted and undiluted sample solutions are injected and the solubilities are calculated using the peak areas determined by integration of the peak found at the same retention time as the principal peak in the standard injection.

[3] = Hydrolytic stability study; assay type: physicochemical; conditions: DMSO/water (3:1); for % Parent Remaining: 1 mg/mL
Method: Chemical stability of compounds of the invention was assessed in a mixture of DMSO and water (3:1) at a test compound concentration of 1 mg/mL.
General HPLC Procedure • Agilent, Waters X-Select C18, 2.5 μm, 4.6×30 mm column, 4 min method, 5-95% MeCN/water (0.1% formic acid). Flow rate 2.5 mL/min. Column Oven Temperature 40° C. Detection 254 nm.
Sample Preparation • A 1.0 mg sample of test compound was dissolved in 750 μL of DMSO. Water (250 μL) was added slowly, ensuring no precipitation occurred.
Recording Stability • A 50 μL aliquot of the test solution was removed and analysed in duplicate by 5 μL HPLC injections. The peak area for the test compound was recorded following manual integration of the corresponding UV trace. • The test solution was heated to 60° C., with stirring, and 50 μL aliquots removed for HPLC analysis at 5 and 24 h timepoints.

## COc1cc(Nc2nccc(Oc3ccc(NC(=O)Nc4cc(C(C)(C)C)cc(NS(C)(=O)=O)c4OC)c4ccccc34)n2)ccc1C(=O)NCCC1CCN(C)CC1 [17(an), 4-((4-((4-(3-(5-(tert-butyl)-2-methoxy-3-(methylsulfonamido)phenyl)ureido)naphthalen-1-yl)oxy)pyrimidin-2-yl)amino)-2-methoxy-N-(2-(1-methylpiperidin-4-yl)ethyl)benzamide]
[1]
  % Viability at 1 μg/mL: 97.9%
  % Viability at 5 μg/mL: 37.9%
  % Viability at 20 μg/mL: 1.1%
[2]
  pH 6.5 FaSSCoF Solubility, Run 2: 0.049 mg/mL

## COc1cc(Nc2cc(Oc3ccc(NC(=O)Nc4cc(C(C)(C)C)cc(NS(C)(=O)=O)c4OC)c4ccccc34)ccn2)ccc1C(=O)NCCNC(=O)CCC(=O)O [17(cd) (hydrochloride salt), 4-((2-(4-((4-((4-(3-(5-(tert-Butyl)-2-methoxy-3-(methylsulfonamido)phenyl)ureido)-naphthalen-1-yl)oxy)pyridin-2-yl)amino)-2-methoxybenzamido)ethyl)amino)-4-oxobutanoic acid]
[2]
  pH 6.5 FaSSCoF Solubility, Run 2: 0.049 mg/mL

## C#Cc1cc(Nc2nccc(Oc3ccc(NC(=O)Nc4cc(C(C)C)nn4-c4ccc(C)cc4)c4ccccc34)n2)cc(C(=O)NCCN2CCOCC2)c1 [Reference Compound B, 3-ethynyl-5-((4-((4-(3-(3-isopropyl-1-(p-tolyl)-1H-pyrazol-5-yl)ureido)naphthalen-1-yl)oxy)pyrimidin-2-yl)amino)-N-(2-morpholinoethyl)benzamide, reference compound]
[3]; 0 min
  % Parent Remaining: 100%
[3]; 60° C., 297 min
  % Parent Remaining: 79%
[3]; 60° C., 1429 min
  % Parent Remaining: 18%
[3]; 60° C.
  decomposition under the conditions of the experiment: substantial decomposition

## COc1cc(Nc2cc(Oc3ccc(NC(=O)Nc4cc(NS(C)(=O)=O)cc(C(C)(C)C)c4)c4ccccc34)ccn2)ccc1C(=O)NCCCN1CCN(C)CC1 [17(bp), 4-((4-((4-(3-(3-(tert-Butyl)-5-(methylsulfonamido)phenyl)ureido)naphthalen-1-yl)oxy)pyridin-2-yl)amino)-2-methoxy-N-(3-(4-methylpiperazin-1-yl)propyl)benzamide]
[1]
  % Viability at 1 μg/mL: 93.2%
  % Viability at 5 μg/mL: 41.0%
  % Viability at 20 μg/mL: 2.0%
[2]
  pH 6.5 FaSSCoF Solubility, Run 2: 0.024 mg/mL

## COc1cc(Nc2cc(Oc3ccc(NC(=O)Nc4cc(C(C)(C)C)cc(NS(C)(=O)=O)c4OC)c4ccccc34)ccn2)ccc1C(=O)NCC(=O)O [17(ar) (hydrochloride salt), 2-(4-((4-((4-(3-(5-(tert-Butyl)-2-methoxy-3-(methylsulfonamido)phenyl)ureido)naphthalen-1-yl)oxy)pyridin-2-yl)amino)-2-methoxybenzamido)acetic acid]
[2]
  pH 6.5 FaSSCoF Solubility, Run 2: 0.198 mg/mL

## COc1cc(Nc2cc(Oc3ccc(NC(=O)Nc4cc(C(C)(C)C)cc(NS(C)(=O)=O)c4OC)c4ccccc34)ccn2)ccc1C(=O)O [1 (sodium salt), 4-((4-((4-(3-(5-(tert-Butyl)-2-methoxy-3-(methylsulfonamido)phenyl)ureido)naphthalen-1-yl)oxy)pyridin-2-yl)amino)-2-methoxybenzoic acid]
[2]
  pH 6.5 FaSSCoF Solubility, Run 2: 0.032 mg/mL

## COc1cc(Nc2cc(Oc3ccc(NC(=O)Nc4cc(C(C)(C)C)cc(NS(C)(=O)=O)c4OC)c4ccccc34)ccn2)ccc1P(C)(=O)O [44 (ammonium salt), (4-((4-((4-(3-(5-(tert-Butyl)-2-methoxy-3-(methylsulfonamido)phenyl)ureido)naphthalen-1-yl)oxy)pyridin-2-yl)amino)-2-methoxyphenyl)(methyl)phosphinic acid]
[2]
  pH 6.5 FaSSCoF Solubility, Run 1: >2.4 mg/mL
  pH 6.5 FaSSCoF Solubility, Run 2: >2.4 mg/mL

## COc1cc(Nc2cc(Oc3ccc(NC(=O)Nc4cc(C(C)(C)C)cc(NS(C)(=O)=O)c4OC)c4ccccc34)ccn2)ccc1C(=O)NCCC(=O)O [17(ay) (hydrochloride salt), 3-(4-((4-((4-(3-(5-(tert-Butyl)-2-methoxy-3-(methylsulfonamido)phenyl)ureido)-naphthalen-1-yl)oxy)pyridin-2-yl)amino)-2-methoxybenzamido)propanoic acid]
[2]
  pH 6.5 FaSSCoF Solubility, Run 2: 0.028 mg/mL

## COc1cc(Nc2cc(Oc3ccc(NC(=O)Nc4cc(C(C)(C)C)cc(NS(C)(=O)=O)c4OC)c4ccccc34)ccn2)ccc1C(=O)NCCOCCOCCOP(=O)(O)O [19 (sodium salt), 2-(2-(2-(4-((4-((4-(3-(5-(tert-Butyl)-2-methoxy-3-(methylsulfonamido)phenyl)ureido)-naphthalen-1-yl)oxy)pyridin-2-yl)amino)-2-methoxybenzamido)ethoxy)ethoxy)ethyl dihydrogen phosphate]
[2]
  solubility thermodynamic at 24 h: > 4700 µg/mL
  pH 6.5 FaSSCoF Solubility, Run 2: >4.7 mg/mL

## COc1cc(Nc2cc(Oc3ccc(NC(=O)Nc4cc(C(C)(C)C)cc(NS(C)(=O)=O)c4OC)c4ccccc34)ccn2)ccc1C(=O)N1C[C@H](O)[C@@H](O)[C@H](O)[C@H]1CO [17(ci), N-(5-(tert-Butyl)-2-methoxy-3-(3-(4-((2-((3-methoxy-4-((2R,3R,4R,5S)-3,4,5-trihydroxy-2-(hydroxymethyl)piperidine-1-carbonyl)phenyl)amino)pyridin-4-yl)oxy)naphthalen-1-yl)ureido)phenyl)methanesulfonamide]
[2]
  solubility thermodynamic at 24 h: 6 µg/mL (≈ 7.1 µM)
  pH 6.5 FaSSCoF Solubility, Run 2: 0.006 mg/mL

## COc1cc(Nc2cc(Oc3ccc(NC(=O)Nc4cc(C(C)(C)C)cc(NS(C)(=O)=O)c4OC)c4ccccc34)ccn2)cc(OC)c1C(=O)NCCN1CCN(CCO)CC1 [Example 37, 4-((4-((4-(3-(5-(tert-Butyl)-2-methoxy-3-(methylsulfonamido)phenyl)ureido)naphthalen-1-yl)oxy)pyridin-2-yl)amino)-N-(2-(4-(2-hydroxyethyl)piperazin-1-yl)ethyl)-2,6-dimethoxybenzamide]
[1]
  % Viability at 1 μg/mL: 52.9%
  % Viability at 5 μg/mL: 55.8%
  % Viability at 20 μg/mL: 28.9%
[2]
  pH 6.5 FaSSCoF Solubility, Run 2: 0.024 mg/mL

## COc1cc(Nc2cc(Oc3ccc(NC(=O)Nc4cc(C(C)(C)C)cc(NS(C)(=O)=O)c4OC)c4ccccc34)ccn2)ccc1P(C)(=O)O [44 (sodium salt), (4-((4-((4-(3-(5-(tert-Butyl)-2-methoxy-3-(methylsulfonamido)phenyl)ureido)naphthalen-1-yl)oxy)pyridin-2-yl)amino)-2-methoxyphenyl)(methyl)phosphinic acid]
[2]
  pH 6.5 FaSSCoF Solubility, Run 1: >7.6 mg/mL
  pH 6.5 FaSSCoF Solubility, Run 2: >5.5 mg/mL
